Source: patent US11339136B2 (Novartis AG, priority 2016, dated 2022)

Target: T1, hNLRP3 (Homo sapiens, UniProt Q96P20)
T1 construct: THP-1 cells were purchased from the American Type Culture Collection; host or cells: THP-1 cells, PMA-differentiated
Assay: IL-1β production in PMA-differentiated THP-1 cells stimulated with gramicidin
Type: cell-based
Conditions: gramicidin 5 μM, IL-1β in supernatant, Table 2
Procedure, shortened: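 THP-1 cells differentiated with PMA (10 μg/ml, 24 h, or 20 ng/ml, 16-18 h), replated in 2% FBS RPMI and preincubated with compound for 1 h before 5 μM gramicidin for 2 h. Supernatant IL-1β measured by ELISA (1% DMSO) or HTRF (0.38% DMSO).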

T1 sequence (Q96P20 whole entry): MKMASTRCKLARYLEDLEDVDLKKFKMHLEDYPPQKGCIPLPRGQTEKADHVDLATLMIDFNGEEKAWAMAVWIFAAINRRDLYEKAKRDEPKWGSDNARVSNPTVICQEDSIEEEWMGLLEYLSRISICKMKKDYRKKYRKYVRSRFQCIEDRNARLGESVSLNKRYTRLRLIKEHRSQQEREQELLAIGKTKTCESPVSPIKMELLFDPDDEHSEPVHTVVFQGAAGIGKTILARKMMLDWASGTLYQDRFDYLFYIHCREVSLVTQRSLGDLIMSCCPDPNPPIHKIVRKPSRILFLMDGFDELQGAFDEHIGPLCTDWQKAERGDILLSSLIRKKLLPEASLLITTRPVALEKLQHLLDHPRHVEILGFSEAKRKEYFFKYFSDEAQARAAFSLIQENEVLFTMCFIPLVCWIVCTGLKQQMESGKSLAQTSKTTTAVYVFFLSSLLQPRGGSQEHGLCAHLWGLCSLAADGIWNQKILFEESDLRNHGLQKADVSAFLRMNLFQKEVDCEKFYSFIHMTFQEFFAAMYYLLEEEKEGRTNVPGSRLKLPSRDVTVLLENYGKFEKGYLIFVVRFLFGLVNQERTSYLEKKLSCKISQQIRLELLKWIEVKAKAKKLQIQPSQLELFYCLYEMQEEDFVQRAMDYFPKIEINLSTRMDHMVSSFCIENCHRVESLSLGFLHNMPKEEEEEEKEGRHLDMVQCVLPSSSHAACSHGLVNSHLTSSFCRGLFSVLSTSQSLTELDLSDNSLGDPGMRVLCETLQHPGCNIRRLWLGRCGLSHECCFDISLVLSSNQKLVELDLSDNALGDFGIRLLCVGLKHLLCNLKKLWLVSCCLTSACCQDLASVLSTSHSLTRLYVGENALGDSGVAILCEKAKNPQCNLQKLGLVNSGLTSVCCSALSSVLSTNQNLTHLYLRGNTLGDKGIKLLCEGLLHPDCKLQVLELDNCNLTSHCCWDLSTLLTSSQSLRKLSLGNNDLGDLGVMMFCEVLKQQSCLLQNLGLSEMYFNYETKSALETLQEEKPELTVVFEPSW

Row | SMILES | IC50 [µM]
1 | CC(C)c1ccc(Cl)c(C(C)C)c1NC(=O)NS(=O)(=O)c1cc(C(C)(C)O)c(Cl)s1 [Compound 252, 5-chloro-N-(3-chloro-2,6-diisopropylphenylcarbamoyl)-4-(2-hydroxypropan-2-yl)thiophene-2-sulfonamide] | 5 to 15
2 | CC(C)c1cc(F)cc(C(C)C)c1NC(=O)NS(=O)(=O)c1cc(C(C)(C)O)c(Cl)s1 [Compound 253, 5-chloro-N-(4-fluoro-2,6-diisopropylphenyl-carbamoyl)-4-(2-hydroxypropan-2-yl)thiophene-2-sulfonamide] | < 1
3 | CC(C)c1cc(Cl)cc(C(C)C)c1NC(=O)NS(=O)(=O)c1cc(C(C)(C)O)c(Cl)s1 [Compound 254, 5-chloro-N-(4-chloro-2,6-diisopropylphenyl-carbamoyl)-4-(2-hydroxypropan-2-yl)thiophene-2-sulfonamide] | < 1
4 | CC(C)(O)c1cc(S(=O)(=O)NC(=O)Nc2c3c(cc4c2CCC4)CCC3)oc1Cl [Compound 255, 5-chloro-N-(1,2,3,5,6,7-hexahydros-indacen-4-ylcarbamoyl)-4-(2-hydroxypropan-2-yl)furan-2-sulfonamide] | < 1
5 | CC(C)c1cc(F)cc(C(C)C)c1NC(=O)NS(=O)(=O)c1ccc(C(C)(C)O)s1 [Compound 257] | < 1
6 | CC(C)c1cccc(C(C)C)c1NC(=O)NS(=O)(=O)c1ncc(C(C)(C)O)s1 [Compound 261] | 1 to 5
7 | CC(C)c1ccc(C#N)c(C(C)C)c1NC(=O)NS(=O)(=O)c1cc(C(C)(C)O)cs1 [Compound 262, N-(3-cyano-2,6-diisopropylphenylcarbamoyl)-4-(2-hydroxypropan-2-yl) thiophene-2-sulfonamide] | 1 to 5
8 | CC(C)c1ccc(C#N)c(C(C)C)c1NC(=O)NS(=O)(=O)c1ncc(C(C)(C)O)s1 [Compound 263, N-(3-cyano-2,6-diisopropylphenylcarbamoyl)-5-(2-hydroxypropan-2-yl) thiazole-2-sulfonamide] | 1 to 5
9 | Cc1sc(S(=O)(=O)NC(=O)Nc2c(C(C)C)ccc(C#N)c2C(C)C)cc1C(C)(C)O [Compound 264, N-(3-cyano-2,6-diisopropylphenylcarbamoyl)-4-(2-hydroxypropan-2-yl)-5-methylthiophene-2-sulfonamide] | 5 to 15
10 | CC(C)c1ccc(C#N)c(C(C)C)c1NC(=O)NS(=O)(=O)c1cc(C(C)(C)O)c(Cl)s1 [Compound 265, 5-chloro-N-(3-cyano-2,6-diisopropylphenylcarbamoyl)-4-(2-hydroxypropan-2-yl) thiophene-2-sulfonamide] | 5 to 15
11 | CC(C)(O)c1ncsc1S(=O)(=O)NC(=O)Nc1c2c(cc3c1CCC3)CCC2 [Compound 266] | 1 to 5
12 | CC(C)c1cc(C#N)cc(C(C)C)c1NC(=O)NS(=O)(=O)c1cnc(C(C)(C)O)s1 [Compound 267] | 1 to 5
13 | CC(C)(O)c1ncsc1S(=O)(=O)NC(=O)Nc1c2c(c(F)c3c1CCC3)CCC2 [Compound 268] | 1 to 5
14 | CC(C)c1cc(F)cc(C(C)C)c1NC(=O)NS(=O)(=O)c1cnc(C(C)(C)O)s1 [Compound 269] | 1 to 5
15 | CC(C)c1cccc(C(C)C)c1NC(=O)NS(=O)(=O)c1cnc(C(C)(C)O)s1 [Compound 270] | 1 to 5
16 | CC(C)c1ccc(Cl)c(C(C)C)c1NC(=O)NS(=O)(=O)c1cnc(C(C)(C)O)s1 [Compound 271] | 1 to 5
17 | Cc1cc(C(C)C)c(NC(=O)NS(=O)(=O)c2cnc(C(C)(C)O)s2)c(C(C)C)c1 [Compound 272] | 1 to 5
18 | CC(C)(O)c1ncsc1S(=O)(=O)NC(=O)Nc1c2c(c(Cl)c3c1CCC3)CCC2 [Compound 273] | 5 to 15
19 | CC(C)c1ccc(F)c(C(C)C)c1NC(=O)NS(=O)(=O)c1cnc(C(C)(C)O)s1 [Compound 274] | 5 to 15
